From EP3851097A1, “CONTROLLED RELEASE FORMULATIONS” (Universidad De Zaragoza, priority 2020, dated 2021) come the findings set out here.

This series is described as follows: Ocular tissue pharmacokinetics of dexamethasone after intravitreal injection (HPLC). The settings on record: vitreous humor. As to the method:
Previously, a paracentesis in the anterior chamber was performed using a 30-gauge hypodermic needle with removal of aqueous humor, to avoid an intraocular pressure elevation.
Thirty female NZ albino rabbits were used for this study: fifteen for SCS group (50 µL-DEX/LAP suspension) and other fifteen for IVT group (100 µL).
After administration of DEX/LAP suspension (10 mg/mL, 1:10 w/w), the rabbits were sacrificed for sampling eye tissues and subsequent ocular PK studies. Three animals were used for each sampling time point at 1, 7, 28, 84 and 168 days. A rapid intravenous injection of sodium pentobarbital (30 mg/kg) through the ear vein was performed and immediately after euthanasia, ocular tissues were collected. Following eye enucleation, the globes were snap-frozen (-40°C) and specimens were obtained by eye dissection (vitreous, lens, sclera and chorio-retina compound). DEX concentrations in ocular tissues were determined using a simple and easily accessible method by HPLC-Mss, according to the methodology described by our group in a previous study.
The determination of DEX was carried out by HPLC-Mss method in a Waters 2695 system equipped with a Phenomenex Kinetex C18 column (75 mm × 4.6 mm × 2.6 µm) coupled to a Waters 2995 PDA detector. The mobile phase was acetonitrile/water (35:65 v/v) pumped at a flow rate of 0.2 mL/min at 35°C. Detection at 250 nm was used. The amount of DEX was calculated by a seven point calibration curve against 6-α-methylprednisolone as internal standard. Aliquots of the extraction medium (200 µL) were mixed with acetonitrile (2 mL) and 100 µL of a standard solution (20 ppm in acetonitrile). The solution was then vortexed for 1 min and sonicated for 5 min to ensure the complete mixing, and finally centrifuged at 3000 rpm for 5 min. The supernatant was collected and evaporated under vacuum, and then dissolved in 200 µL of acetonitrile, filtered through a 0.22 µm PTFE syringe filter and analyzed.
PK data were analyzed for the best fit and were consequently modelled according to compartmental models using Microsoft Excel's "PKSolver Add-in" (Albuquerque, NM, USA), in which equations describing concentration as a function of time are used. The following PK parameters were obtained: peak concentration (Cmax), time to peak concentration (Tmax), elimination half-life (T½).
To describe the time course-concentration after administration the following equation was used: Ctissue = C0 ∗e^(−Ke t) [formula] where C is the tissue concentration, C0 is the concentration at time to, Ke is the elimination rate constant which is derived from the elimination half-life of the drug (Ke= 0.693/T1/2).

[1] abbreviates: 100 µL intravitreal administration.

Regarding `C[C@@H]1C[C@H]2[C@@H]3CCC4=CC(=O)C=C[C@]4(C)[C@@]3(F)[C@@H](O)C[C@]2(C)[C@@]1(O)C(=O)CO` [DEX solution, Dexamethasone], under setting [1], the “AUC0-∞” value turned out to be 317.17 ng·days/g, the C0 stood at 1737.71 ng/g, the Cl was 315.29 g/day and the Ke came to 5.48 day⁻¹. For the same compound, the “clearance (CL)” value (intravitreal injection) is recorded as 315.29 g/day.
